Where a name gives a salt, the structure may show the parent alone. Read-outs that look alike come from different tables or passages of the source.
Columns and labels:
KRAS(G12D)/SOS1 = molecular target: T1, KRAS(G12D)/SOS1 (Homo sapiens, UniProt P01116, G12D); experiment: KRAS(G12D)/SOS1 homogeneous time-resolved fluorescence (HTRF) assay; assay type: binding; settings: absence of GTP, 4° C. for 3 hr
T1 construct: purchased Cisbio 63ADK000CB16PEG
Description: The test compound was mixed and incubated with reaction components, incubated in a sealed plate at 4° C. for 3 hr and fluorescence was measured using a PerkinElmer Envision plate reader.

[1] = test system: AsPC-1 human pancreatic adenocarcinoma; experiment: CellTiter-Glo cancer cell line proliferation assay, AsPC-1; assay type: cell-based
Description: (§1) Cell lines were cultured according to ATCC and recommendations.
(§2) CellTiter-Glo® Reagent Cancer Cell Line Proliferation Assays
(§3) Cells were plated in 96-well tissue culture plates at 4,000 cells/well and incubated at 37° C./5% CO2 for 24 hr in 100 μl of media. […] Cells were then treated with test compounds at various concentrations with a final concentration of 0.5% DMSO/well, and then incubated at 37° C./5% CO2 for 24 hr. 100 μl of CellTiter-Glo® Reagent (Promega Corporation, Madison, WI) was added to each well and processed according manufacturer's protocol. Results were analyzed and IC50-values were calculated in GraphPad 7 software.

[2] = test system: A-427 human lung carcinoma; experiment: CellTiter-Glo cancer cell line proliferation assay, A-427; assay type: cell-based; settings: read-out: A427 at 24 hrs, IC50
Description: as §1, §2, §3

KRAS(G12D) = molecular target: T2, KRAS(G12D) (Homo sapiens, UniProt P01116, G12D); experiment: SW1990 WB assay (degradation DC50, Dmax); assay type: cell-based; settings: Western blot, SW1990 cells
T2 construct: endogenous in cells; host or cells: SW1990

[3] = molecular target: BA/F3-KRAS(G12D) murine pro-B cell line stably expressing KRAS(G12D) (Homo sapiens, UniProt P01116, G12D, cells depend on it); experiment: CellTiter-Glo cancer cell line proliferation assay, BA/F3-KRAS(G12D); assay type: cell-based; settings: 24 hr, read-out: BAF3 at 24 hrs, IC50
Description: The following cancer cell lines were employed: AsPC-1 human pancreatic adenocarcinoma (ATCC, #CRL-1682); A-427 human lung carcinoma (ATCC, #HTB-53); BA/F3-KRAS(G12D) murine pro-B cell line stably expressing KRAS(G12D) (Precedo, Hefei, China). Cell lines were cultured according to ATCC and recommendations. BA/F3-KRAS(G12D) cells were cultured in RPMI 1640 media with 10% fetal calf serum, 100 units/mL penicillin and […] streptomycin, and 1% glutamine.
as §2
Cells were plated in 96-well tissue culture plates at 4,000 cells/well and incubated at 37° C./5% CO2 for 24 hr in 100 μl of media. 3-fold serial dilutions of each test compound were prepared ranging from 20 μM to 1.02 nM. Cells were then treated with test compounds at various concentrations with a final concentration of 0.5% DMSO/well, and then incubated at 37° C./5% CO2 for 24 hr. 100 μl of CellTiter-Glo® Reagent (Promega Corporation, Madison, WI) was added to each well and processed according manufacturer's protocol. Results were analyzed and IC50-values were calculated in GraphPad 7 software.

Chain of BA/F3-KRAS(G12D) murine pro-B cell line stably expressing KRAS(G12D) (P01116 whole entry G12D): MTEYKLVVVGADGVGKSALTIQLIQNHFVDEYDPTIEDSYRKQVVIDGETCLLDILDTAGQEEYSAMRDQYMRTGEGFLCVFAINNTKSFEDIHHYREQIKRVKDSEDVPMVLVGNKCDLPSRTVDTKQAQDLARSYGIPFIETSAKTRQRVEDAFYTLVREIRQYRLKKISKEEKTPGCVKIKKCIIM
T1 sequence (P01116 1-188 isoform P01116-2 G12D): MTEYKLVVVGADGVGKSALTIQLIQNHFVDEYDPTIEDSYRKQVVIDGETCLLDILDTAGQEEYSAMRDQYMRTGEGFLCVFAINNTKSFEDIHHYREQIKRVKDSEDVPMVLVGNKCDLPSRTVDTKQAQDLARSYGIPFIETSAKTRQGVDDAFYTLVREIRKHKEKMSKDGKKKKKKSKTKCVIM
T2 sequence (P01116 1-188 isoform P01116-2 G12D): as above

Compound	IC50 (KRAS(G12D)/SOS1) [nM]	IC50 ([1]; Homo sapiens, ASPC1, 24 hr) [nM]	IC50 ([2]; Homo sapiens, A-427, 24 hr) [nM]	DC50 (KRAS(G12D)) [nM]	Dmax (KRAS(G12D)) [%]	GI50 [3] [nM]	IC50 ([1]; 24 hr, read-out: ASPC1 at 24 hrs, IC50) [nM]	IC50 ([2]; 24 hr) [nM]	WB data SW1990 DMax (KRAS(G12D))
C#Cc1cccc2cc(O)cc(-c3nc(OC)c4c(N5CC6CCC(C5)N6)nc(OCC5(CN6CCN(CC7CCN(c8ccc9c(c8)CN(C8CCC(=O)NC8=O)C9=O)CC7)CC6)CC5)nc4c3F)c12 (stereo not drawn) [Compound 78]	< 100	< 100	< 100	< 100	> 50	–	–	–	–
C#Cc1c(F)ccc2cc(O)cc(-c3ncc4c(N5CC6CCC(C5)N6)nc(OCC5(CN6CCC(C7CCN(c8ccc9c(c8)CN(C8CCC(=O)NC8=O)C9=O)CC7)CC6)CC5)nc4c3F)c12 (stereo not drawn) [Compound 102]	< 100	< 100	100 to 1000	100 to 1000	10 to 50	–	–	–	–
C#Cc1c(F)ccc2cc(O)cc(-c3ncc4c(N5CC6CCC(C5)N6)nc(OCC5(CN6CCN(CC7CN(c8ccc9c(c8)CN(C8CCC(=O)NC8=O)C9=O)C7)CC6)CC5)nc4c3F)c12 (stereo not drawn) [Compound 103]	< 100	100 to 1000	> 1000	> 1000	10 to 50	–	–	–	–
C#Cc1c(F)ccc2cc(O)cc(-c3nc(OC)c4c(N5CC6CCC(C5)N6)nc(OCC5(CN6CCN(CC7CCN(c8ccc9c(c8)CN(C8CCC(=O)NC8=O)C9=O)CC7)CC6)CC5)nc4c3F)c12 (stereo not drawn) [Compound 100]	< 100	< 100	100 to 1000	> 1000	10 to 50	–	–	–	–
C#Cc1cccc2cc(O)cc(-c3ncc4c(N5CC6CCC(C5)N6)nc(OCC5(CN6CCC(C(=O)N7CCN(c8ccc9c(c8)CN(C8CCC(=O)NC8=O)C9=O)CC7)CC6)CC5)nc4c3F)c12 (stereo not drawn) [Compound 85]	–	> 1000	< 100	100 to 1000	> 50	–	–	–	–
C#Cc1cccc2cc(O)cc(-c3ncc4c(N5CC6CCC(C5)N6)nc(OCC5(CN6CCN(CC7CCN(c8ccc9c(c8)CN(C)C9=O)CC7)CC6)CC5)nc4c3F)c12 [Compound 81]	< 100	100 to 1000	100 to 1000	> 1000	10 to 50	–	–	–	–
C#Cc1cccc2cc(O)cc(-c3ncc4c(N5CC6CCC(C5)N6)nc(OCC5(CN(C)CC6CCN(c7ccc8c(c7)CN(C7CCC(=O)NC7=O)C8=O)CC6)CC5)nc4c3F)c12 (stereo not drawn) [Compound 84]	–	> 1000	> 1000	100 to 1000	> 50	–	–	–	–
C#Cc1cccc2cc(O)cc(-c3ncc4c(N5CC6CCC(C5)N6)nc(OCC5(CN6CCN(CC7CCN(c8ccc9c(c8)C(=O)N(C8CCC(=O)NC8=O)C9)CC7)CC6)CC5)nc4c3F)c12 (stereo not drawn) [Compound 86]	–	< 100	< 100	< 100	> 50	–	–	–	–
C#Cc1cccc2cccc(-c3ncc4c(N5CC6CCC(C5)N6)nc(OCCN5CCN(C(=O)C6CCN(c7ccc8c(c7)C(=O)N(C7CCC(=O)NC7=O)C8=O)CC6)CC5)nc4c3F)c12 (stereo not drawn) [Compound 4, 5-(4-(4-(2-((4-(3,8-diazabicyclo[3.2.1]octan-3-yl)-7-(8-ethynylnaphthalen-1-yl)-8-fluoropyrido[4,3-d]pyrimidin-2-yl)oxy)ethyl)piperazine-1-carbonyl)piperidin-1-yl)-2-(2,6-dioxopiperidin-3-yl)isoindoline-1,3-dione formate]	> 1000	–	> 1000	–	–	> 1000	–	–	–
C#Cc1cccc2cccc(-c3ncc4c(N5CC6CCC(C5)N6)nc(OC[C@@H]5CC[C@H](CN6CCN(C(=O)C7CCN(c8ccc9c(c8)C(=O)N(C8CCC(=O)NC8=O)C9=O)CC7)CC6)N5C)nc4c3F)c12 (stereo partly drawn) [Compound 16, 5-(4-(4-(((2R,5S)-5-(((4-(3,8-diazabicyclo[3.2.1]octan-3-yl)-7-(8-ethynylnaphthalen-1-yl)-8-fluoropyrido[4,3-d]pyrimidin-2-yl)oxy)methyl)-1-methylpyrrolidin-2-yl)methyl)piperazine-1-carbonyl)piperidin-1-yl)-2-(2,6-dioxopiperidin-3-yl)isoindoline-1,3-dione hydrochloride]	< 100	–	> 1000	–	–	> 1000	–	–	–
C#Cc1cccc2cc(O)cc(-c3ncc4c(N5CC6CCC(C5)N6C(=O)C(F)(F)F)nc(OCC5(CN6CCN(CC7CCN(c8ccc9c(c8)CN(C8CCC(=O)NC8=O)C9=O)CC7)CC6)CC5)nc4c3F)c12.Cl (stereo not drawn) [Compound 87]	–	–	–	–	–	–	100 to 1000	100 to 1000	B (Dmax = 10-50%)
C#Cc1c(F)ccc2cc(O)cc(-c3ncc4c(N5CC6CCC(C5)N6)nc(OCC5(CN6CCC(CN7CCN(c8ccc9c(c8)CN(C8CCC(=O)NC8=O)C9=O)CC7)CC6)CC5)nc4c3F)c12 (stereo not drawn) [Compound 99]	< 100	< 100	> 1000	< 100	> 50	–	–	–	–
C#Cc1cccc2cc(O)cc(-c3ncc4c(N5CC6CCC(C5)N6)nc(OCC5(CN6CCN(CC7CCN(c8ccc9c(c8)CN(C8CCC(=O)NC8=O)C9=O)CC7)CC6)CC5)nc4c3F)c12 (stereo not drawn) [Compound 57]	< 100	< 100	< 100	< 100	> 50	–	–	–	–
C=CC(=O)N1CCN(c2nc(OCC3(CN4CCN(CC5CCN(c6ccc7c(c6)CN(C6CCC(=O)NC6=O)C7=O)CC5)CC4)CC3)nc3c2CCN(c2cccc4cccc(Cl)c24)C3)C[C@@H]1CC#N (stereo partly drawn) [Compound 98]	> 1000	> 1000	> 1000	> 1000	< 10	–	–	–	–
C#Cc1cccc2cc(O)cc(-c3ncc4c(N5CC6CCC(C5)N6)nc(OCC5(CN6CCN(CC7CCN(c8ccc9c(c8)CN(C8CCC(=O)NC8=O)C9=O)CC7)[C@@H](C7CC7)C6)CC5)nc4c3F)c12 (stereo partly drawn) [Compound 96]	< 100	< 100	100 to 1000	> 1000	10 to 50	–	–	–	–
C#Cc1cccc2cc(O)cc(-c3ncc4c(N5CC6CCC(C5)N6)nc(OCC5(CN6CCN(CC7CCN(c8ccc(NC9CCC(=O)NC9=O)cc8)CC7)CC6)CC5)nc4c3F)c12 (stereo not drawn) [Compound 95]	< 100	100 to 1000	100 to 1000	> 1000	< 10	–	–	–	–
C#Cc1c(F)ccc2cc(O)cc(-c3nc(O)c4c(N5CC6CCC(C5)N6)nc(OCC5(CN6CCN(CC7CCN(c8ccc9c(c8)CN(C8CCC(=O)NC8=O)C9=O)CC7)CC6)CC5)nc4c3F)c12 (stereo not drawn) [Compound 101]	–	100 to 1000	> 1000	> 1000	< 10	–	–	–	–
C#Cc1cccc2cc(O)cc(-c3ncc4c(N5CC6CCC(C5)N6)nc(OCC5(CN6CCN(CC7CCN(CCC(=O)N[C@@H](C(=O)N8C[C@@H](O)C[C@@H]8C(=O)NCc8ccc(-c9scnc9C)cc8)C(C)(C)C)CC7)CC6)CC5)nc4c3F)c12 [Compound 83]	< 100	> 1000	> 1000	> 1000	10 to 50	–	–	–	–
Cc1ncsc1-c1ccc(CNC(=O)C2CC(O)CN2C(=O)C(NC(=O)C2CCN([C@H]3C[C@@H](COc4nc(N5CC6CCC(C5)N6)c5cnc(-c6cccc7cccc(Cl)c67)cc5n4)N(C)C3)CC2)C(C)(C)C)cc1 (stereo in doubt) [Compound 20, 1-[(3S,5S)-5-({[7-(8-chloronaphthalen-1-yl)-4-{3,8-diazabicyclo[3.2.1]octan-3-yl}pyrido[4,3-d]pyrimidin-2-yl]oxy}methyl)-1-methylpyrrolidin-3-yl]-N-[(2S)-1-[(2 S,4R)-4-hydroxy-2-({[4-(4-methyl-1,3-thiazol-5-yl)phenyl]methyl}carbamoyl)pyrrolidin-1-yl]-3,3-dimethyl-1-oxobutan-2-yl]piperidine-4-carboxamide]	> 1000	–	–	–	–	> 1000	–	–	–
C#Cc1c(F)ccc2cc(O)cc(-c3nc(OC)c4c(N5CC6CCC(C5)N6C(=O)C(F)(F)F)nc(OCC5(CN6CCN(CC7CCN(c8ccc9c(c8)CN(C8CCC(=O)NC8=O)C9=O)CC7)CC6)CC5)nc4c3F)c12 (stereo not drawn) [Compound 93]	< 100	100 to 1000	> 1000	100 to 1000	10 to 50	–	–	–	–
